The values below come from US20140194460A1, “TREATMENT OF ENDOMETRIOSIS” (Ferring B.V., priority 2009, published 2014).

What all share (format): in vivo, human
Assay [1] deals with peritoneal red endometriotic lesions. Briefly: Macroscopic analysis: appearance and surface area of index endometriotic lesions at L1 and L2. On the procedure: Operative L1 and L2 were performed by two experienced surgeons using modern laparoscopic equipment and the surgeries were recorded by video. The severity of the disease was established according to the Revised American Society for Reproductive Medicine classification of endometriosis: […] (16). During L1, 4-6 index peritoneal red lesions were identified before surgical manipulation started. Half of the index lesions were surgically removed and stored as described below. The remaining half index lesions were left behind and marked with an unabsorbable silk knot sature approximately 1 cm away from them. All non-index lesions were subsequently removed and discarded. […] Thus the study continued with 10 patients after L1. One patient discontinued treatment. At the end of treatment, the L2 was performed and video recorded. During surgery the silk knot was identified in all patients, the suture removed and the area containing the index lesion left behind surgically excised. If significant adhesion formation was detected, lysis of adhesion was performed. The index lesions removed at L1 and L2 were fixed in formalin (approximately 75% of each lesion tissue) for histological verification and descriptive analysis of endometriosis. Formalin fixed samples were also employed for immunohistochemical analysis and subsequent quantification of vascularisation, vessel immatureness, Drd2 expression, cell proliferation, VEGFR2 expression and VEGFR2 activation by techniques well known in the art. The remaining portion of each lesion tissue (25%) was homogenized in Trizol and cryopreserved at −80° C. for subsequent Superarray QF-PCR analysis. All laparoscopies were recorded with a Karl Storz (Germany) videocamera. […] Eligible frames were captured, copied to a PC computer and opened with ImagePro Plus Version 6.03 (Media Cybernetics, Silver Spring, Md., USA) software for image processing. The size of the black or grey cap served as a reference to measure the changes in surface induced by quinagolide at L2 over the lesions left behind during L1.

Assay [2] deals with PRL. Briefly: Serum PRL level before and after treatment. The following applies: per patient; after oral 25/50/75 micrograms/day titrated treatment, 18-20 weeks. The procedure:
1] Laparoscopy 1: an endometriotic implant was biopsied, and a second endometriotic implant, similar to the biopsied one, was marked with a non-absorbable suture. Pictures were taken before and after surgery from all individuals. The marked implant was photographed (e.g. FIG. 1A). The biopsy sample was analysed as described below. An assessment of ASRM stage pre-treatment was taken. The PRL level (μg/mL) and Ca125 level (IU/ml) for each patient was measured pre-treatment, by known methods. 3] Laparoscopy 2: in which the second (marked) implant was biopsied. The marked implant was photographed (e.g. FIG. 1B). The biopsy sample was analysed as described below. A second assessment of the ASRM stage post-treatment was completed. The PRL level (μg/mL) and Ca125 level (IU/ml) for each patient was measured post-treatment, by known methods. During the four month treatment period, i.e. between L1 and L2, patients were monthly monitored in our clinic to assess severity of common side effects of Drd2-A like dizziness, nausea and vomiting. During these visits, blood was drawn for subsequent EIA measurement of serum PRL, a marker of the level of Drd2 activity, to monitor compliance with taking the medication.

For assay [3], the system named is vessels in endometriotic lesions. Nature of the assay: Vascularisation of biopsy samples by CD31 immunofluorescence/immunohistochemistry. The note with it: after versus before treatment, FIG. 2. On the procedure:
The vascularisation effects of the quinagolide were assessed by immunofluorescence/immunohistochemistry on the biopsy samples taken before and after treatment, by methods well known in the art. The CD31(+) signal was used which specifically stains for vessels; vessels are stained brown. In order to quantify vascularisation at least 10 random 40× microscopic fields per sample were photographed and analysed using Image pro-plus software. Areas of interest corresponding to vessels (brown stain) were segmented and marked; and those corresponding to non vascularised areas were segmented and marked differently. The marked image was then analysed to show the % vascularised area per tissue, and the results for samples before and after treatment are shown in FIG. 2.

The subject of assay [4] is proliferating cells (Ki67+) in endometriotic implants. Briefly: Proliferative activity by Ki-67 immunocytochemistry. The following applies: after versus before treatment, FIG. 3.
Protocol: Immunocytochemistry with Ki-67 (monoclonal IgG1 DAKO Corp., Denmark) antibody was performed in order to evaluate the proliferative activity of the samples, by methods well known in the art. […] The images obtained show proliferating cells as positive for Ki67 with nuclear (brown/black) staining. At least 10 random 40× microscopic fields per sample were photographed and analysed. Areas of interest corresponding to proliferating cells (Ki67+) were segmented and marked, and counted.
Assay [5] has as its system endometriosis. Nature of the assay: ASRM classification of endometriosis before and after treatment (pilot study). The following applies: per patient (9 women with hyperprolactinemia and endometriosis); oral 25 then 50 then 75 micrograms/day, total 18-20 weeks; stage IV most severe, stage I least severe. On the procedure: (§1) 1] Laparoscopy 1: an endometriotic implant was biopsied, and a second endometriotic implant, similar to the biopsied one, was marked with a non-absorbable suture. Pictures were taken before and after surgery from all individuals. The marked implant was photographed (e.g. FIG. 1A). The biopsy sample was analysed as described below. An assessment of ASRM stage pre-treatment was taken. The PRL level (μg/mL) and Ca125 level (IU/ml) for each patient was measured pre-treatment, by known methods.
3] Laparoscopy 2: in which the second (marked) implant was biopsied. The marked implant was photographed (e.g. FIG. 1B). The biopsy sample was analysed as described below. A second assessment of the ASRM stage post-treatment was completed. The PRL level (μg/mL) and Ca125 level (IU/ml) for each patient was measured post-treatment, by known methods.
Operative L1 and L2 were performed by two experienced surgeons using modern laparoscopic equipment and the surgeries were recorded by video. The severity of the disease was established according to the Revised American Society for Reproductive Medicine classification of endometriosis: […] (16). During L1, 4-6 index peritoneal red lesions were identified before surgical manipulation started. Half of the index lesions were surgically removed and stored as described below. […]

For assay [6], the system named is dopamine receptor 2 (DAR2). Briefly: DAR2 expression in endometriotic lesions by staining. The note with it: after versus before treatment, FIG. 5. On the procedure: DAR2 expression in human endometriotic lesions was measured by staining, by methods well known in the art (FIG. 5, bottom).
For assay [7], the system named is Ca125. Nature of the assay: Ca125 level before and after treatment. The note with it: per patient; after oral 25/50/75 micrograms/day titrated treatment, 18-20 weeks. The procedure:
as §1, with “methods. 3] Laparoscopy 2: in which the second (marked) implant was biopsied. The marked implant was photographed (e.g. FIG. 1B). The biopsy sample was analysed as described below. A second assessment of the ASRM stage post-treatment was completed. The PRL level (μg/mL) and Ca125 level (IU/ml) for each patient was measured post-treatment, by known methods.” for “methods.”

The subject of assay [8] is endometriotic lesions. Briefly: Histological analysis and Superarray QF-PCR expression analysis of index lesions removed at L1 and L2. The procedure:
At the end of treatment, the L2 was performed and video recorded. During surgery the silk knot was identified in all patients, the suture removed and the area containing the index lesion left behind surgically excised. If significant adhesion formation was detected, lysis of adhesion was performed. The index lesions removed at L1 and L2 were fixed in formalin (approximately 75% of each lesion tissue) for histological verification and descriptive analysis of endometriosis. Formalin fixed samples were also employed for immunohistochemical analysis and subsequent quantification of vascularisation, vessel immatureness, Drd2 expression, cell proliferation, VEGFR2 expression and VEGFR2 activation by techniques well known in the art. The remaining portion of each lesion tissue (25%) was homogenized in Trizol and cryopreserved at −80° C. for subsequent Superarray QF-PCR analysis.

[9] abbreviates: L2 versus L1, results not shown.

Molecules are shown by their SMILES. Where “and” joins values, the source holds several entries; their conditions need not be identical. Equal entries are not always repeated. Entries after “also recorded” stand apart in the source; their conditions may differ.

For `CCCN1C[C@H](NS(=O)(=O)N(CC)CC)C[C@H]2Cc3c(O)cccc3C[C@@H]21` [quinagolide, (3R,4aR,10aS)-3-(Diethylsulfamoylamino)-6-hydroxy-1-propyl-3,4,4a,5,10,10a-hexahydro-2H-benzo[g]quinoline], the “Decrease of mean total surface area (size) of index lesions, L2 versus L1” value in assay [1] (9 patients, after 18-20 weeks treatment) is given as 68%. The “Mean of the total surface area of index lesions measured during L2” value in assay [1] (9 patients, vanished lesions counted as 100% size reduction, L1 value 36.09±20.56 mm^2, p<0.05) was determined as 11.57±12.54 mm^2. Further, the Lesions vanishing in assay [1] (after 18-20 weeks treatment) is reported as 35%. In addition, the “Number of recovered index lesions showing reduction in size compared to L1” value in assay [1] (out of 15 lesions recovered at L2) was determined as 13. In addition, the “Number of red index lesions vanished at L2” value in assay [1] (out of 23 red index lesions labelled at L1) is recorded as 8. In assay [1] (out of the 9 patients), the “Number of patients with all index endometriotic lesions absent during L2” value came to 2 and the “Number of patients with vanished lesions combined with persisting lesions decreased in size” value is 3. Moreover, the “PRL level after treatment” value in assay [2] was <0.6 μg/mL (2×) and 15.1 μg/mL and 14 μg/mL and 6.5 μg/mL and <0.1 μg/mL and 6.4 μg/mL and 1.1 μg/mL and 28.6 μg/mL. Moreover, the “Vascularisation of the endometriotic sample (% vascularised area, CD31)” value in assay [3] is “significant decrease in vascularisation”. Further, the “Cell proliferation (Ki-67 positive cells per microscopic field)” value in assay [4] is reported as “trend towards reduced cell proliferation”. Besides, the ASRM post treatment result in assay [5] is reported as “Stage II; also recorded: Stage I; also recorded: Stage III”. Besides, in assay [6], the “Expression of the dopamine receptor 2 (DAR2) in endometriotic lesions” value is given as “increases the expression”. The “Ca125 level after treatment” value in assay [7] was 25.9 IU/ml and 15.5 IU/ml and 18 IU/ml and 21.1 IU/ml and 22 IU/ml and 24.1 IU/ml and 20.4 IU/ml and 29.9 IU/ml and 24.9 IU/ml. Besides, the PAI-1 expression entry in assay [8] (L2 lesion) is “down-regulated”. For the same compound, the “Histological analysis of lesions” value in assay [8] (L2 lesions) is “signs of tissue degeneration”. In assay [8] (setting [9]), the “Expression of Drd2 and antiangiogenic cytokine CXCL10” value is “upreguilating”; the “Expression of VEGF/VEGFR2 and proangiogenic cytokines CCL2, RUNX1 and AGGF1” value was “downregulated”.
